Source: patent publication US20230167088A1, “1-PYRAZINYLPYRAZOLYL-3-OXYALKYL ACIDS AND THEIR DERIVATIVES, AND THEIR USE FOR CONTROL OF UNDESIRED PLANT GROWTH” (BAYER AKTIENGESELLSCHAFT, priority 2020, published 2023)

Assays:
POAAN [1] = assay: Herbicidal post-emergence action 1b (twin sowing, 1280 g/ha); assay type: in vivo, Poa annua; conditions: dosage 1280 g/ha, visual rating about 3 weeks after treatment
Procedure, shortened: (§1)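 Compounds formulated as WP or EC were applied with 0.5% additive in 600 L/ha water onto one-leaf-stage weeds, each pot sown with one monocot and one dicot species in sandy loam. After roughly 3 weeks in the greenhouse, visual percent activity was scored against untreated plants.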

MATIN [2] = assay: Herbicidal pre-emergence action 2b (doubly sown, 1280 g/ha); assay type: in vivo, Matricaria inodora; conditions: doubly sown pots, dosage 1280 g/ha, visual scoring after about 3 weeks
Procedure, shortened: (§2)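 Visual % scores against untreated plants (0% = like control, 100% = dead) were taken roughly 3 weeks after treatment in the greenhouse. Compounds, as WP or EC with 0.5% additive, were applied in 600 l/ha water onto covering soil over seeds of paired mono-/dicot weeds in sandy loam.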

POAAN [3] = assay: as above; assay type: in vivo, Poa annua; conditions: doubly sown pots, dosage 1280 g/ha, visual scoring after about 3 weeks
Procedure, shortened: as §2

ECHCG [4] = assay: as above; assay type: in vivo, Echinochloa crus-galli; conditions: doubly sown pots, dosage 1280 g/ha, visual scoring after about 3 weeks
Procedure, shortened: as §2

DIGSA [5] = assay: Herbicidal post-emergence action 1b (twin sowing, 1280 g/ha); assay type: in vivo, Digitaria sanguinalis; conditions: dosage 1280 g/ha, visual rating about 3 weeks after treatment
Protocol: (§3) [table] b) Seeds of mono- and dicotyledonous weed plants are placed in plastic pots in sandy loam soil (twin sowing with one species each of mono- or dicotyledonous weed plants per pot), covered with soil and cultivated in a greenhouse under controlled growth conditions. 2 to 3 weeks after sowing, the test plants are treated at the one-leaf stage. The compounds of the invention, formulated in the form of wettable powders (WP) or as emulsion concentrates (EC), are applied to the green parts of the plants as aqueous suspension or emulsion with addition of 0.5% additive at a water application rate equivalent to 600 litres per hectare. After the test plants have been kept in the greenhouse under optimum growth conditions for about 3 weeks, the activity of the preparations is rated visually in comparison to untreated controls. For example, 100% activity=the plants have died, 0% activity=like control plants. Tables A16 to A21 below show the effects of selected compounds of the general formula (I) according to Tables 1 and 2 on various harmful plants and at an application rate corresponding to 1280 g/ha, which were obtained by the experimental procedure mentioned above.

DIGSA [6] = assay: Herbicidal pre-emergence action 2b (doubly sown, 1280 g/ha); assay type: in vivo, Digitaria sanguinalis; conditions: doubly sown pots, dosage 1280 g/ha, visual scoring after about 3 weeks
Procedure, shortened: as §2

MATIN [7] = assay: Herbicidal post-emergence action 1b (twin sowing, 1280 g/ha); assay type: in vivo, Matricaria inodora; conditions: dosage 1280 g/ha, visual rating about 3 weeks after treatment
Procedure, shortened: as §1

STEME [8] = assay: as above; assay type: in vivo, Stellaria media; conditions: dosage 1280 g/ha, visual rating about 3 weeks after treatment
Procedure, shortened: as §1

AMARE [9] = assay: Herbicidal pre-emergence action 2b (doubly sown, 1280 g/ha); assay type: in vivo, Amaranthus retroflexus; conditions: doubly sown pots, dosage 1280 g/ha, visual scoring after about 3 weeks
Procedure, shortened: as §2

ABUTH = assay: Herbicidal post-emergence action 1b (twin sowing, 1280 g/ha); assay type: in vivo, Abutilon theophrasti; conditions: dosage 1280 g/ha, visual rating about 3 weeks after treatment
Protocol: as §3

STEME [10] = assay: Herbicidal pre-emergence action 2b (doubly sown, 1280 g/ha); assay type: in vivo, Stellaria media; conditions: doubly sown pots, dosage 1280 g/ha, visual scoring after about 3 weeks
Procedure, shortened: as §2

ECHCG [11] = assay: Herbicidal post-emergence action 1b (twin sowing, 1280 g/ha); assay type: in vivo, Echinochloa crus-galli; conditions: dosage 1280 g/ha, visual rating about 3 weeks after treatment
Protocol: as §3

DIGSA [12] = assay: Herbicidal post-emergence action 1a (greenhouse pots, visual rating); assay type: in vivo, Digitaria sanguinalis; conditions: Dosage 80 g/ha; rated visually about 3 weeks after treatment; 100% = plants have died, 0% = like control plants
Protocol: (§4) [table] a) Seeds of monocotyledonous and dicotyledonous weeds and crop plants are placed in sandy loam in plastic or organic plant pots, covered with soil and cultivated in a greenhouse under controlled growth conditions. 2 to 3 weeks after sowing, the test plants are treated at the one-leaf stage. The compounds of the invention, formulated in the form of wettable powders (WP) or as emulsion concentrates (EC), are then sprayed onto the green parts of the plants as aqueous suspension or emulsion with addition of 0.5% additive at a water application rate of 600 1/ha (converted). After the test plants have been kept in the greenhouse under optimum growth conditions for about 3 weeks, the activity of the preparations is rated visually in comparison to untreated controls. For example, 100% activity=the plants have died, 0% activity=like control plants. Tables A1 to A15 below show the effects of selected compounds of the general formula (I) according to Tables 1 and 2 on various harmful plants and an application rate corresponding to 320 g/ha and/or 80 g/ha, which were obtained by the experimental procedure mentioned above.

PHBPU = assay: as above; assay type: in vivo, Pharbitis purpurea; conditions: dosage 80 g/ha, visual rating about 3 weeks after treatment
Procedure, shortened: (§5)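 Visual scoring versus untreated plants (100% = plants dead, 0% = as control) followed roughly 3 weeks in the greenhouse after treatment. Plants grown in sandy loam pots had been sprayed on green parts at the one-leaf stage, 2–3 weeks post-sowing, with aqueous WP/EC preparations containing 0.5% additive, 600 l/ha, at 320 and/or 80 g/ha.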

ALOMY [13] = assay: as above; assay type: in vivo, Alopecurus myosuroides; conditions: Dosage 80 g/ha; rated visually about 3 weeks after treatment; 100% = plants have died, 0% = like control plants
Procedure, shortened: as §5

DIGSA [14] = assay: Herbicidal pre-emergence action 2a (greenhouse pots, visual scoring); assay type: in vivo, Digitaria sanguinalis; conditions: dosage 80 g/ha, visual scoring after about 3 weeks
Excerpt: (§6) [table] a) Seeds of monocotyledonous and dicotyledonous weed plants and crop plants are placed in plastic or organic plant pots and covered with soil. The compounds of the invention, formulated in the form of wettable powders (WP) or as emulsion concentrates (EC), are then applied onto the surface of the covering soil as aqueous suspension or emulsion with addition of 0.5% additive at a water application rate of 600 1/ha (converted). After the treatment, the pots are placed in a greenhouse and kept under good growth conditions for the trial plants. After about 3 weeks, the effect of the preparations is scored visually in comparison with untreated controls as percentages. For example, 100% activity=the plants have died, 0% activity=like control plants. Tables B1 to B15 below show the effects of selected compounds of the general formula (I) according to Tables 1 and 2 on various harmful plants and an application rate corresponding to 320 g/ha and/or 80 g/ha, which were obtained by the experimental procedure mentioned above.

AMARE [15] = assay: Herbicidal post-emergence action 1a (greenhouse pots, visual rating); assay type: in vivo, Amaranthus retroflexus; conditions: dosage 80 g/ha, visual rating about 3 weeks after treatment
Procedure, shortened: as §5

AMARE [16] = assay: Herbicidal pre-emergence action 2a (greenhouse pots, visual scoring); assay type: in vivo, Amaranthus retroflexus; conditions: visual scoring after about 3 weeks vs untreated controls
Procedure, shortened: (§7)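 Weed and crop seeds placed in pots and covered with soil; aqueous suspension or emulsion of WP/EC formulation applied to the soil surface before emergence (600 l/ha, 0.5% additive, 320 and/or 80 g/ha). Pots kept in the greenhouse about 3 weeks; visual percentage scoring.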

VIOTR [17] = assay: as above; assay type: in vivo, Viola tricolor; conditions: dosage 320 g/ha, visual scoring after about 3 weeks vs untreated controls
Excerpt: as §6

VERPE [18] = assay: Herbicidal post-emergence action 1a (greenhouse pots, visual rating); assay type: in vivo, Veronica persica; conditions: dosage 80 g/ha, visual rating about 3 weeks after treatment
Procedure, shortened: as §5

ALOMY [19] = assay: Herbicidal pre-emergence action 2a (greenhouse pots, visual scoring); assay type: in vivo, Alopecurus myosuroides; conditions: dosage 320 g/ha, visual scoring after about 3 weeks
Procedure, shortened: as §7

VERPE [20] = assay: as above; assay type: in vivo, Veronica persica; conditions: dosage 320 g/ha, visual scoring after about 3 weeks vs untreated controls
Procedure, shortened: as §7

SETVI = assay: as above; assay type: in vivo, Setaria viridis; conditions: dosage 320 g/ha, visual scoring after about 3 weeks vs untreated controls
Procedure, shortened: as §7

MATIN [21] = assay: as above; assay type: in vivo, Matricaria inodora; conditions: dosage 320 g/ha, visual scoring after about 3 weeks vs untreated controls
Procedure, shortened: as §7

VIOTR [22] = assay: Herbicidal post-emergence action 1a (greenhouse pots, visual rating); assay type: in vivo, Viola tricolor; conditions: dosage 80 g/ha, visual rating about 3 weeks after treatment
Protocol: as §4

LOLRI = assay: Herbicidal pre-emergence action 2a (greenhouse pots, visual scoring); assay type: in vivo, Lolium rigidum; conditions: dosage 320 g/ha, visual scoring after about 3 weeks vs untreated controls
Procedure, shortened: as §7

SMILES	Post-emergence action at 1280 g/ha against POAAN in % (POAAN [1])	Pre-emergence action at 1280 g/ha against MATIN in % (MATIN [2])	Pre-emergence action at 1280 g/ha against POAAN in % (POAAN [3])	Pre-emergence action at 1280 g/ha against ECHCG in % (ECHCG [4])	Post-emergence action at 1280 g/ha against DIGSA in % (DIGSA [5])	Pre-emergence action at 1280 g/ha against DIGSA in % (DIGSA [6])	Post-emergence action at 1280 g/ha against MATIN in % (MATIN [7])	Post-emergence action at 1280 g/ha against STEME in % (STEME [8])	Pre-emergence action at 1280 g/ha against AMARE in % (AMARE [9])	Post-emergence action at 1280 g/ha against ABUTH in % (ABUTH)	Pre-emergence action at 1280 g/ha against STEME in % (STEME [10])	Post-emergence action at 1280 g/ha against ECHCG in % (ECHCG [11])	Post-emergence action against ALOMY in % (ALOMY [13])	further results
O=C(O)COc1nn(-c2cnccn2)c(-c2ccc(F)nc2)c1Br [Example I-49, {[4-bromo-5-(6-fluoropyridin-3-yl)-1-(pyrazin-2-yl)-1H-pyrazol-3-yl]oxy}acetic acid]	100%	100%	100%	100%	90%	100%	100%	90%	100%	100%	100%	100%		
CC(Oc1nn(-c2cnccn2)c(-c2ccc(F)c(F)c2)c1Br)C(=O)O (stereo not drawn) [Example I-47]	100%	100%	100%	100%	100%	100%	90%	100%	100%	90%	100%	100%	90%	Post-emergence action against DIGSA in % (DIGSA [12]): 80%; Post-emergence action against PHBPU in % (PHBPU): 80%; Pre-emergence action against DIGSA in % (DIGSA [14]): 100%; Post-emergence action against AMARE in % (AMARE [15]): 80%; Pre-emergence action against AMARE in % (AMARE [16]; dosage 80 g/ha): 90%
O=C(COc1nn(-c2cnccn2)c(-c2ccc(F)nc2)c1Br)OCc1ccccn1 [Example I-70]		100%	100%	100%	100%	100%	100%	100%	100%	100%	100%	90%		
N#CCOC(=O)COc1nn(-c2cnccn2)c(-c2ccc(F)nc2)c1Br [Example I-65]	100%	100%	100%	100%	100%	100%	100%	90%	100%	90%	100%	90%	80%	Pre-emergence action against VIOTR in % (VIOTR [17]): 90%; Post-emergence action against VERPE in % (VERPE [18]): 80%; Pre-emergence action against ALOMY in % (ALOMY [19]): 90%; Pre-emergence action against VERPE in % (VERPE [20]): 90%; Pre-emergence action against SETVI in % (SETVI): 100%; Pre-emergence action against MATIN in % (MATIN [21]): 90%; Post-emergence action against VIOTR in % (VIOTR [22]): 80%; Pre-emergence action against AMARE in % (AMARE [16]; dosage 320 g/ha): 100%; Pre-emergence action against LOLRI in % (LOLRI): 80%
